Series [1] can be described thus: Solubility of Compound (Ia) 2HCl in water (ethanol also assessed). Format: physicochemical. The protocol: Ethanol was also assessed as part of this study.
Series [2] in a line: Excipient compatibility, 14 days stability (HPLC assay and related substances). The format is physicochemical. Conditions: 25° C./60% RH and 40° C./75% RH. The protocol: The successful formulation characteristics of a solution are its solubility and stability. The solvent system chosen must also be able to solubilise the drug at the desired concentration and must provide an environment where the drug has sufficient chemical stability. This study is an initial comparison of 2 weeks stability with potential excipients, and the % degradation was assessed. The excipients assessed are those typically found in liquid and freeze dried formulations. Excipient compatibility was investigated by subjecting a series of mixes containing active and excipient to elevated temperature for a nominated period and monitoring any degradation.
The solutions that were soluble in Table 3 were also prepared using Kolliphor 400 mg/mL in water and with Tween 80 as a solubiliser. These solutions were placed on stability at 25° C./60% RH and 40° C./75% RH for 14 days. The formulations was assessed for assay and related substances after 14 days of storage. Refer to Table 4 and 5 for the results.

The values that follow come from patent US12419886B2, “Parenteral formulations and uses thereof” (Eustralis Pharmaceuticals Limited, priority 2018, dated 2025).

For `Cc1ccccc1-c1cc(N2CCN(C)CC2)ncc1C(=O)N(C)Cc1cc(C(F)(F)F)cc(C(F)(F)F)c1` [Compound (Ia) 2HCl], the “pH of solution in water” value is recorded as 2.39 in series [1] (5 mg/mL); 2.14 in series [1] (10 mg/mL); 2.02 in series [1] (15 mg/mL); 1.87 in series [1] (20 mg/mL); 1.81 in series [1] (25 mg/mL); 1.75 in series [1] (30 mg/mL). The “pH of solution in water” value in series [1] (35 mg/mL) turned out to be 1.72; in series [1] (40 mg/mL), 1.66; in series [1] (45 mg/mL), 1.54; in series [1] (50 mg/mL) it was 1.52. Moreover, the “Result (solubility in water)” value in series [1] (5 mg/mL (50 mg in 10 mL water)) is on record as “Very soluble”; in series [1] (10 mg/mL (100 mg in 10 mL water)), “Very soluble”; in series [1] (15 mg/mL (150 mg in 10 mL water)) it was “Soluble”; in series [1] (20 mg/mL (200 mg in 10 mL water)), “Soluble”; in series [1] (25 mg/mL (250 mg in 10 mL water)), “Soluble”; in series [1] (30 mg/mL (300 mg in 10 mL water)) it was “Soluble”. In addition, the “Result (solubility in water)” value in series [1] (35 mg/mL (350 mg in 10 mL water)), in series [1] (40 mg/mL (400 mg in 10 mL water)), in series [1] (45 mg/mL (450 mg in 10 mL water)) and in series [1] (50 mg/mL (500 mg in 10 mL water)) was “Soluble” in each case. Besides, the Solubility entry in series [1] (50 mg/mL, sentence follows mention of ethanol) is “freely soluble”. For the same compound, the “Stability in a range of formulations (conclusion)” value in series [2] is given as “quite stable”.
